How the values were obtained:
[1] = Compound cytotoxicity, XTT-based colorimetric assay; type: cell-based; details: human; uninfected MT2 cells, day 4, XTT; read-out: CC50
Description: Compound cytotoxicity and the corresponding CC50 values were determined using the same protocol as described in the antiviral assay except that uninfected cells were used. Cytotoxicity was assessed on day 4 in uninfected MT2 cells by using a XTT (2,3-bis [2-Methoxy-4-nitro-5-sulfophenyl]-2H-tetrazolium-5-carboxyanilide inner salt)-based colorimetric assay (Sigma-Aldrich, St Louis, Mo.).

[2] = system: recombinant NL4-3 virus (Renilla luciferase reporter) in MT-2 cells; experiment: HIV cell culture assay (antiviral activity, luciferase readout in infected MT-2 cells); type: cell-based; details: NL43

With `Cn1nc(NS(C)(=O)=O)c2c(Cl)ccc(-n3c([C@H](Cc4cc(F)cc(F)c4)NC(=O)Cn4nc(C(F)F)c5c4C(F)(F)[C@@H]4C[C@H]54)nc4nc(N5CC6CCC(C5)O6)ccc4c3=O)c21` [Example 21, N-((1S)-1-(7-(8-oxa-3-azabicyclo[3.2.1]octan-3-yl)-(3P)-3-(4-chloro-1-methyl-3-(methylsulfonamido)-1H-indazol-7-yl)-4-oxo-3,4-dihydropyrido[2,3-d]pyrimidin-2-yl)-2-(3,5-difluorophenyl)ethyl)-2-((3bS,4aR)-3-(difluoromethyl)-5,5-difluoro-3b,4,4a,5-tetrahydro-1H-cyclopropa[3,4]cyclopenta[1,2-c]pyrazol-1-yl)acetamide] the CC50 at 4 days [1] was > 100 nM and the EC50 [2] was 0.058 nM.
